The target of one data set is T1, S. aureus ClpP (Sa-ClpP) (Staphylococcus aureus, UniProt Q2G036).
T1 construct: made in house; host or cells: E. coli BL21 (DE3)
Kind of data set: Casein-BODIPY digestion assay (ClpP activation). Format: biochemical.

Data set [1] in a line: Microsomal metabolic stability. Format: in vitro ADME, human.
Where [2] appears, read: microsomal metabolic stability half-life, human liver microsomes.

The values below come from patent publication US10570179B2, “Substituted urea depsipeptide analogs as activators of the CLPP endopeptidase” (priority 2016, dated 2020).

The structures appear in SMILES notation. Numbered stars: 1 amine (or outer) side, 2 acyl side, 3 side chain; on linkers, the order of the positions; unused ones are H or OH. Bridge positions count the residues as written; N and C are the ends. Square brackets hold non-standard residues; d marks the D form. Peptide text beside a SMILES is read from it. * marks the point of attachment. X5 = O=C([C@@H]1C[C@@H](OP(=O)(O)O)CN1[*:1])[*:2]; Piperazine(2S-CO,4-Me) = CN1CCN[C@H](C(=O)O)C1; Phe(3-Cl) = N[C@@H](Cc1cccc(Cl)c1)C(=O)O; Morpholine(3S-CO) = O=C(O)[C@@H]1COCCN1; Phe(3-Me) = Cc1cccc(C[C@H](N)C(=O)O)c1; NH(4-Cl-2-F-phenyl) = Fc1cc(Cl)ccc1N*; Pro(4R-Me) = C[C@H]1CN[C@H](C(=O)O)C1; Hyp = O=C(O)[C@@H]1C[C@@H](O)CN1; NH(4-Et-phenyl) = CCc1ccc(N*)cc1; NH(4-Me-phenyl) = Cc1ccc(N*)cc1; aThr = C[C@H](O)[C@H](N)C(=O)O; Pip = O=C(O)[C@@H]1CCCCN1; X3 = c1cc2c(cc1N*)OCCO2; CO = O=C([*:1])[*:2] Bounds are passed on as bounds.

T1 sequence (Q2G036 whole entry): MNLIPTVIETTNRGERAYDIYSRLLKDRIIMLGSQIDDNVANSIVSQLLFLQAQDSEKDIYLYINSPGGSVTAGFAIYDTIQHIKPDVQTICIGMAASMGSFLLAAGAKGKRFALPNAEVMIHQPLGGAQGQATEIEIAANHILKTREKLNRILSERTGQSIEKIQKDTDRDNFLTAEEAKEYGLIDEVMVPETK

In the case of `Cc1cccc(C[C@H](NC(=O)Nc2ccc3c(c2)OCO3)C(=O)N[C@H]2COC(=O)[C@@H]3C[C@@H](C)CN3C(=O)[C@H](C)NC(=O)[C@@H]3CCCCN3C(=O)[C@@H]3CCCN3C2=O)c1` [Compound 23, (S)-2-(3-(BENZO[D][1,3]DIOXOL-5-YL)UREIDO)-N-((2R,6S,8AS,14AS,20S,23AS)-2,6-DIMETHYL-5,8,14,19,23-PENTAOXOOCTADECAHYDRO-1H,5H,14H,19H-PYRIDO[2,1-I]DIPYRROLO[2,1-C:2′,1′-L][1]OXA[4,7,10,13]TETRAAZACYCLOHEXADECIN-20-YL)-3-(M-TOLYL)PROPANAMIDE], the EC50 (usually the concentration giving half of the maximal effect) on S. aureus ClpP (Sa-ClpP) amounted to 350 ± 90 nM. The “Human” value in data set [1] (human, pH 7.4) amounted to 30.2 ± 11.7 h.
`CCc1ccc(NC(=O)N[C@@H](Cc2cccc(C)c2)C(=O)N[C@@H]2C(=O)N3C[C@H](O)C[C@H]3C(=O)N3CCOC[C@H]3C(=O)N[C@@H](C)C(=O)N3C[C@H](C)C[C@H]3C(=O)O[C@H]2C)cc1` [Compound 24, (S)-2-(3-(4-ETHYLPHENYL)UREIDO)-N-((6AS,8R,12S,13S,15AS,17R,21S,23AS)-8-HYDROXY-13,17,21-TRIMETHYL-6,11,15,20,23-PENTAOXOOCTADECAHYDRO-6H,11H,15H-[1,4]OXAZINO[3,4-I]DIPYRROLO[2,1-C:2′,1′-L][1]OXA[4,7,10,13]TETRAAZACYCLOHEXADECIN-12-YL)-3-(M-TOLYL)PROPANAMIDE] ({NH(4-Et-phenyl)-CO}-[Phe(3-Me)][aThr][Hyp][Morpholine(3S-CO)]A[Pro(4R-Me)]; ester 2-C) gave an EC50 at S. aureus ClpP (Sa-ClpP) of 130 ± 40 nM. In data set [1] (human, pH 7.4), the “Human” value turned out to be 4.89 ± 0.67 h.
Taken in the same sequence, the figures for `CCc1ccc(NC(=O)N[C@@H](Cc2cccc(C)c2)C(=O)N[C@@H]2C(=O)N3C[C@H](O)C[C@H]3C(=O)N3CCCC[C@H]3C(=O)N[C@@H](C)C(=O)N3C[C@H](C)C[C@H]3C(=O)O[C@H]2C)cc1` [Compound 25, (S)-2-(3-(4-ETHYLPHENYL)UREIDO)-N-((2R,6S,8AS,14AS,16R,20S,21S,23AS)-16-HYDROXY-2,6,21-TRIMETHYL-5,8,14,19,23-PENTAOXOOCTADECAHYDRO-1H,5H,14H,19H-PYRIDO[2,1-I]DIPYRROLO[2,1-C:2′,1′-L][1]OXA[4,7,10,13]TETRAAZACYCLOHEXADECIN-20-YL)-3-(M-TOLYL)PROPANAMIDE] ({NH(4-Et-phenyl)-CO}-[Phe(3-Me)][aThr][Hyp][Pip]A[Pro(4R-Me)]; ester 2-C) were 410 ± 20 nM and 15.19 ± 2.47 h.
`Cc1ccc(NC(=O)N[C@@H](Cc2cccc(C)c2)C(=O)N[C@@H]2C(=O)N3C[C@H](O)C[C@H]3C(=O)N3CCCC[C@H]3C(=O)N[C@@H](C)C(=O)N3C[C@H](C)C[C@H]3C(=O)O[C@H]2C)cc1` [Compound 26, (S)—N-((2R,6S,8AS,14AS,16R,20S,21S,23AS)-16-HYDROXY-2,6,21-TRIMETHYL-5,8,14,19,23-PENTAOXOOCTADECAHYDRO-1H,5H,14H,19H-PYRIDO[2,1-I]DIPYRROLO[2,1-C:2′,1′-L][1]OXA[4,7,10,13]TETRAAZACYCLOHEXADECIN-20-YL)-3-(M-TOLYL)-2-(3-(P-TOLYL)UREIDO)PROPANAMIDE] ({NH(4-Me-phenyl)-CO}-[Phe(3-Me)][aThr][Hyp][Pip]A[Pro(4R-Me)]; ester 2-C) returned a concentration giving a half-maximal response (EC50) on S. aureus ClpP (Sa-ClpP) of 650 ± 90 nM. For the same compound, in data set [1] (setting [2]), the “Human” value was found to be 2.66 ± 0.3 h.
For the compound `Cc1cccc(C[C@H](NC(=O)Nc2ccc3c(c2)OCCO3)C(=O)N[C@@H]2C(=O)N3C[C@H](O)C[C@H]3C(=O)N3CCOC[C@H]3C(=O)N[C@@H](C)C(=O)N3C[C@H](C)C[C@H]3C(=O)O[C@H]2C)c1` [Compound 27, (S)-2-(3-(2,3-DIHYDROBENZO[B][1,4]DIOXIN-6-YL)UREIDO)-N-((6AS,8R,12S,13S,15AS,17R,21S,23AS)-8-HYDROXY-13,17,21-TRIMETHYL-6,11,15,20,23-PENTAOXOOCTADECAHYDRO-6H,11H,15H-[1,4]OXAZINO[3,4-I]DIPYRROLO[2,1-C:2′,1′-L][1]OXA[4,7,10,13]TETRAAZACYCLOHEXADECIN-12-YL)-3-(M-TOLYL)PROPANAMIDE] ({X3-CO}-[Phe(3-Me)][aThr][Hyp][Morpholine(3S-CO)]A[Pro(4R-Me)]; ester 2-C), at S. aureus ClpP (Sa-ClpP), it took 1200 ± 100 nM to reach a half-maximal effect (EC50). Further, the “Human” value in data set [1] (human, pH 7.4) is 0.49 ± .495 h.
`Cc1cccc(C[C@H](NC(=O)Nc2ccc3c(c2)OCCO3)C(=O)N[C@@H]2C(=O)N3C[C@H](O)C[C@H]3C(=O)N3CCCC[C@H]3C(=O)N[C@@H](C)C(=O)N3C[C@H](C)C[C@H]3C(=O)O[C@H]2C)c1` [Compound 28, (S)-2-(3-(2,3-DIHYDROBENZO[B][1,4]DIOXIN-6-YL)UREIDO)-N-((2R,6S,8AS,14AS,16R,20S,21S,23AS)-16-HYDROXY-2,6,21-TRIMETHYL-5,8,14,19,23-PENTAOXOOCTADECAHYDRO-1H,5H,14H,19H-PYRIDO[2,1-I]DIPYRROLO[2,1-C:2′,1′-L][1]OXA[4,7,10,13]TETRAAZACYCLOHEXADECIN-20-YL)-3-(M-TOLYL)PROPANAMIDE] ({X3-CO}-[Phe(3-Me)][aThr][Hyp][Pip]A[Pro(4R-Me)]; ester 2-C) displayed a concentration for a half-maximal effect (EC50) on S. aureus ClpP (Sa-ClpP) of 910 ± 80 nM. For the same compound, the “Human” value in data set [1] (human, pH 7.4) is 0.18 ± .185 h.
Take `Cc1cccc(C[C@H](NC(=O)Nc2ccc(Cl)cc2F)C(=O)N[C@@H]2C(=O)N3C[C@H](OP(=O)(O)O)C[C@H]3C(=O)N3CCCC[C@H]3C(=O)N[C@@H](C)C(=O)N3C[C@H](C)C[C@H]3C(=O)O[C@H]2C)c1` [Compound 29, (2R,6S,8AS,14AS,16R,20S,21S,23AS)-20-((S)-2-(3-(4-CHLORO-2-FLUOROPHENYL)UREIDO)-3-(M-TOLYL)PROPANAMIDO)-2,6,21-TRIMETHYL-5,8,14,19,23-PENTAOXOOCTADECAHYDRO-1H,5H,14H,19H-PYRIDO[2,1-I]DIPYRROLO[2,1-C:2′,1′-L][1]OXA[4,7,10,13]TETRAAZACYCLOHEXADECIN-16-YL DIHYDROGEN PHOSPHATE] ({NH(4-Cl-2-F-phenyl)-CO}-[Phe(3-Me)][aThr][X5][Pip]A[Pro(4R-Me)]; ester 2-C): a half-maximal response on S. aureus ClpP (Sa-ClpP) (EC50) required 240 ± 240 nM. In addition, in data set [1] (setting [2]), the “Human” value was above 4 h.
As for `Cc1ccc(NC(=O)N[C@@H](Cc2cccc(C)c2)C(=O)N[C@@H]2C(=O)N3C[C@H](O)C[C@H]3C(=O)N3CCN(C)C[C@H]3C(=O)N[C@@H](C)C(=O)N3C[C@H](C)C[C@H]3C(=O)O[C@H]2C)cc1` [Compound 30, (S)—N-((6AS,8R,12S,13S,15AS,17R,21S,23AS)-8-HYDROXY-2,13,17,21-TETRAMETHYL-6,11,15,20,23-PENTAOXOOCTADECAHYDRO-2H,6H,11H,15H-PYRAZINO[2,1-I]DIPYRROLO[2,1-C:2′,1′-L][1]OXA[4,7,10,13]TETRAAZACYCLOHEXADECIN-12-YL)-3-(M-TOLYL)-2-(3-(P-TOLYL)UREIDO)PROPANAMIDE] ({NH(4-Me-phenyl)-CO}-[Phe(3-Me)][aThr][Hyp][Piperazine(2S-CO,4-Me)]A[Pro(4R-Me)]; ester 2-C), it took 290 ± 290 nM to reach a half-maximal effect on S. aureus ClpP (Sa-ClpP) (EC50). Also, the “Human” value in data set [1] (setting [2]) was 1.30 ± .305 h.
`Cc1cccc(C[C@H](NC(=O)Nc2ccc(Cl)cc2F)C(=O)N[C@@H]2C(=O)N3C[C@H](O)C[C@H]3C(=O)N3CCN(C)C[C@H]3C(=O)N[C@@H](C)C(=O)N3C[C@H](C)C[C@H]3C(=O)O[C@H]2C)c1` [Compound 31, (S)-2-(3-(4-CHLORO-2-FLUOROPHENYL)UREIDO)-N-((6AS,8R,12S,13S,15AS,17R,21S,23AS)-8-HYDROXY-2,13,17,21-TETRAMETHYL-6,11,15,20,23-PENTAOXOOCTADECAHYDRO-2H,6H,11H,15H-PYRAZINO[2,1-I]DIPYRROLO[2,1-C:2′,1′-L][1]OXA[4,7,10,13]TETRAAZACYCLOHEXADECIN-12-YL)-3-(M-TOLYL)PROPANAMIDE] ({NH(4-Cl-2-F-phenyl)-CO}-[Phe(3-Me)][aThr][Hyp][Piperazine(2S-CO,4-Me)]A[Pro(4R-Me)]; ester 2-C) gave an EC50 on S. aureus ClpP (Sa-ClpP) of 180 ± 180 nM. Besides, the “Human” value in data set [1] (human, pH 7.4) was 3.87 ± .875 h.
At S. aureus ClpP (Sa-ClpP), `C[C@@H]1C[C@H]2C(=O)O[C@@H](C)[C@H](NC(=O)[C@H](Cc3cccc(Cl)c3)NC(=O)Nc3ccc(Cl)cc3F)C(=O)N3CCC[C@H]3C(=O)N3CCN(C)C[C@H]3C(=O)N[C@@H](C)C(=O)N2C1` [Compound 33] ({NH(4-Cl-2-F-phenyl)-CO}-[Phe(3-Cl)][aThr]P[Piperazine(2S-CO,4-Me)]A[Pro(4R-Me)]; ester 2-C) showed a 50% effective concentration (EC50) of 200 ± 200 nM. For the same compound, the “Human” value in data set [1] (human, pH 7.4) is 9.25 ± .255 h.
